Measurements reported in the supplement of paper PMC10307832.

How the values were obtained:
Assay in all cases: relative viability (nuclei count vs DMSO), 5 days (fraction); higher = more cells survive
[1] = compound: CCc1cnn2c(NCc3ccc[n+]([O-])c3)cc(N3CCCC[C@H]3CCO)nc12 [Dinaciclib] + Cc1nc(NC(=O)N2CCC[C@H]2C(N)=O)sc1-c1ccnc(C(C)(C)C(F)(F)F)c1 [Alpelisib] (partner 2 µM)
How it was run: (§1)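 Relative viability is defined as nuclei in treated wells over nuclei in vehicle wells. Duplicate plates were run and medians reported. Lung cancer cell lines in 1536-well plates were dosed by pin tool one day after seeding, with one drug or with a fixed anchor-drug dose plus five library-drug doses (not always all listed) in √10 steps, and nuclei were counted after 5 days.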

[2] = compound: CCc1cnn2c(NCc3ccc[n+]([O-])c3)cc(N3CCCC[C@H]3CCO)nc12 [Dinaciclib] + COc1cccc2cc(-c3nc([C@H]4CC[C@H](C(=O)O)CC4)n4ncnc(N)c34)[nH]c12 [OSI-027] (partner 0.5 µM)
How it was run: as §1

[3] = compound: CCc1cnn2c(NCc3ccc[n+]([O-])c3)cc(N3CCCC[C@H]3CCO)nc12 [Dinaciclib] + C[C@@H](Oc1cc(-c2cnn(C3CCNCC3)c2)cnc1N)c1c(Cl)ccc(F)c1Cl [Crizotinib] (partner 1 µM)
How it was run: as §1

[4] = compound: CCc1cnn2c(NCc3ccc[n+]([O-])c3)cc(N3CCCC[C@H]3CCO)nc12 [Dinaciclib] + COc1cc2c(Oc3ccc(NC(=O)C4(C(=O)Nc5ccc(F)cc5)CC4)cc3F)ccnc2cc1OCCCN1CCOCC1 [Foretinib] (partner 0.25 µM)
How it was run: as §1

[5] = compound: CCc1cnn2c(NCc3ccc[n+]([O-])c3)cc(N3CCCC[C@H]3CCO)nc12 [Dinaciclib] + N=C(N)NC(=N)NCCc1ccccc1 [Phenformin] (partner 250 µM)
How it was run: as §1

| Cell Line | relative viability ([1]; first compound 0.009487 µM) | relative viability ([1]; first compound 0.03 µM) | relative viability ([1]; first compound 0.09487 µM) | relative viability ([1]; first compound 0.3 µM) | relative viability ([2]; first compound 0.009487 µM) | relative viability ([2]; first compound 0.03 µM) | relative viability ([2]; first compound 0.09487 µM) | relative viability ([2]; first compound 0.3 µM) | relative viability ([3]; first compound 0.009487 µM) | relative viability ([3]; first compound 0.03 µM) | relative viability ([3]; first compound 0.09487 µM) | relative viability ([3]; first compound 0.3 µM) | relative viability ([4]; first compound 0.009487 µM) | relative viability ([4]; first compound 0.03 µM) | relative viability ([4]; first compound 0.09487 µM) | relative viability ([4]; first compound 0.3 µM) | relative viability ([5]; first compound 0.009487 µM) | relative viability ([5]; first compound 0.03 µM) | relative viability ([5]; first compound 0.09487 µM) | relative viability ([5]; first compound 0.3 µM) |
| --- | --- | --- | --- | --- | --- | --- | --- | --- | --- | --- | --- | --- | --- | --- | --- | --- | --- | --- | --- | --- |
| LU99A | 0.37 | 0.133 | 0.116 | 0.0993 | 0.284 | 0.202 | 0.153 | 0.144 | 0.315 | 0.131 | 0.125 | 0.122 | 0.545 | 0.183 | 0.128 | 0.154 | 0.709 | 0.14 | 0.0878 | 0.132 |
| LXF-289 | 1.01 | 0.264 | 0.0715 | 0.0695 | 0.948 | 0.4 | 0.0693 | 0.0617 | 0.754 | 0.274 | 0.0748 | 0.0784 | 1.03 | 0.706 | 0.0732 | 0.0742 | 0.538 | 0.229 | 0.0748 | 0.0626 |
| NCI-H23 | 0.578 | 0.15 | 0.119 | 0.104 | 0.714 | 0.227 | 0.132 | 0.1 | 0.47 | 0.171 | 0.107 | 0.0907 | 0.57 | 0.187 | 0.108 | 0.15 | 0.807 | 0.31 | 0.114 | 0.116 |
| NCI-H322M | 0.737 | 0.718 | 0.196 | 0.211 | 0.419 | 0.286 | 0.323 | 0.285 | 1.05 | 0.66 | 0.191 | 0.182 | 0.801 | 0.287 | 0.302 | 0.281 | 0.41 | 0.315 | 0.244 | 0.267 |
| NCI-H358 | 0.61 | 0.14 | 0.161 | 0.183 | 0.49 | 0.0844 | 0.0665 | 0.0776 | 0.373 | 0.0972 | 0.135 | 0.144 | 0.493 | 0.0864 | 0.0847 | 0.0882 | 0.268 | 0.078 | 0.0729 | 0.0856 |
| NCI-H441 | 0.594 | 0.128 | 0.147 | 0.15 | 0.519 | 0.185 | 0.202 | 0.153 | 0.595 | 0.134 | 0.0914 | 0.101 | 0.789 | 0.204 | 0.174 | 0.222 | 0.688 | 0.184 | 0.164 | 0.136 |
| NCI-H460 | 0.383 | 0.0074 | 0.0122 | 0.0084 | 0.392 | 0.0364 | 0.0185 | 0.0206 | 0.688 | 0.0158 | 0.0092 | 0.011 | 0.803 | 0.0417 | 0.0257 | 0.0233 | 0.296 | 0.0189 | 0.0192 | 0.0198 |
| NCI-H520 | 0.601 | 0.148 | 0.141 | 0.147 | 0.277 | 0.179 | 0.19 | 0.156 | 0.573 | 0.102 | 0.124 | 0.128 | 0.573 | 0.126 | 0.136 | 0.151 | 0.476 | 0.203 | 0.167 | 0.166 |
